Results taken from US20230077362A1 (CORTEVA AGRISCIENCE LLC, priority 2019, published 2023).
Like-named read-outs stand apart in the source and are kept apart here.

What was measured:
[1] = tested on: Beet Armyworm (Spodoptera exigua) ("BAW"), second instar larvae; assay: Bioassay on beet armyworm (BAW), 128-well diet tray assay; assay type: in vivo; conditions: for pest or weed control at 50 µg/cm2: Spodoptera exigua; for BAW rating: C = not tested, D = no activity noticed
Outline: (§1)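 Second-instar larvae on diet in 128-well trays, covered and held at 25° C, 14:10 light-dark, for five to seven days. Percent mortality scored per well and averaged over eight wells; activity reported as a rating category.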

[2] = tested on: Cabbage Looper (Trichoplusia ni) ("CL"), second instar larvae; assay: Bioassay on cabbage looper (CL), 128-well diet tray assay; assay type: in vivo; conditions: for CL rating: C = not tested, D = no activity noticed
Outline: as §1

[3] = Trichoplusia ni, read-out: CL rating
[4] = read-out: BAW (Biological Results, rating)
[5] = Trichoplusia ni, read-out: CL (Biological Results, rating)

Row | Structure (SMILES) | pest or weed control at 50 µg/cm2 ([1]; read-out: BAW rating) [%] | pest or weed control at 50 µg/cm2 [2, 3] [%] | pest or weed control at 50 µg/cm2 [1, 4] [%] | pest or weed control at 50 µg/cm2 [2, 5] [%] | further results
1 | Cc1cccc(N2C(=O)CS/C2=N\C(=O)Nc2ccc(-n3cnc(-c4ccc(OC(F)(F)F)cc4)n3)cc2F)c1COCC(F)(F)F [Compound J703, (Z)-1-(2-Fluoro-4-(3-(4-(trifluoromethoxy)phenyl)-1H-1,2,4-triazol-1-yl)phenyl)-3-(3-(3-methyl-2-((2,2,2-trifluoroethoxy)methyl)phenyl)-4-oxothiazolidin-2-ylidene)urea] | 50 to 100 | 50 to 100 |  |  | 
2 | CCc1cc(-c2ncn(-c3ccc(OC(F)(F)F)cc3)n2)ccc1NC(=O)/N=C1\SCC(=O)N1c1cc(N(C)C)ccc1C(C)C [Compound J83, (Z)-1-(3-(5-(Dimethylamino)-2-isopropylphenyl)-4-oxothiazolidin-2-ylidene)-3-(2-ethyl-4-(1-(4-(trifluoromethoxy)phenyl)-1H-1,2,4-triazol-3-yl)phenyl)urea] |  |  | 50 to 100 | 50 to 100 | 
3 | COC(C)c1ccc(C)cc1N1C(=O)CS/C1=N\C(=O)Nc1c(C)cc(-c2ncn(-c3ccc(OC(F)(F)F)cc3)n2)cc1C (stereo not shown) [Compound J97, (Z)-1-(2,6-Dimethyl-4-(1-(4-(trifluoromethoxy)phenyl)-1H-1,2,4-triazol-3-yl)phenyl)-3-(3-(2-(1-methoxyethyl)-5-methylphenyl)-4-oxothiazolidin-2-ylidene)urea] |  |  | 50 to 100 | 50 to 100 | 
4 | Cc1ccc(COCC(C)(F)F)c(N2C(=O)CS/C2=N\C(=O)Nc2ccc(-c3ncn(-c4ccc(OC(F)(F)F)cc4)n3)cc2C)c1 [Compound J534] |  |  |  |  | BAW rating ([1]; Table ABC, species BAW): A (50-100); CL rating ([2]; Table ABC, species CL): A (50-100)
5 | CCOC(C)c1ccc(C)cc1N1C(=O)CS/C1=N\C(=O)Nc1ccc(-c2ncn(-c3ccc(OC(F)(F)F)cc3)n2)cc1F (stereo not shown) [Compound J124, (Z)-1-(3-(2-(1-Ethoxyethyl)-5-methylphenyl)-4-oxothiazolidin-2-ylidene)-3-(2-fluoro-4-(1-(4-(trifluoromethoxy)phenyl)-1H-1,2,4-triazol-3-yl)phenyl)urea] |  |  | 50 to 100 | 50 to 100 | 
6 | COC(C)c1ccc(C)cc1N1C(=O)CS/C1=N\C(=O)Nc1ccc(-c2ncn(-c3ccc(OC(F)(F)F)cc3)n2)cc1C(C)C (stereo not shown) [Compound J94, (Z)-1-(2-Isopropyl-4-(1-(4-(trifluoromethoxy)phenyl)-1H-1,2,4-triazol-3-yl)phenyl)-3-(3-(2-(1-methoxyethyl)-5-methylphenyl)-4-oxothiazolidin-2-ylidene)urea] |  |  | 50 to 100 | 50 to 100 | 
7 | Cc1ccc(C(C)C)c(N2C(=O)CS/C2=N\C(=O)Nc2ccc(-c3ncn(-c4ccc(C(F)(F)F)cn4)n3)cc2)c1 [Compound J337, (Z)-1-(3-(2-Isopropyl-5-methylphenyl)-4-oxothiazolidin-2-ylidene)-3-(4-(1-(5-(trifluoromethyl)pyridin-2-yl)-1H-1,2,4-triazol-3-yl)phenyl)urea] |  |  | 50 to 100 | 50 to 100 | 
8 | CC(C)c1cc(F)c(N(C)C)cc1N1C(=O)CS/C1=N\C(=O)Nc1ccc(-c2cn(-c3ccc(S(F)(F)(F)(F)F)cc3)cn2)cc1F [Compound J604, (Z)-1-(3-(5-(Dimethylamino)-4-fluoro-2-isopropylphenyl)-4-oxothiazolidin-2-ylidene)-3-(2-fluoro-4-(1-(4-(pentafluoro-λ^6-sulfaneyl)phenyl)-1H-imidazol-4-yl)phenyl)urea] | 50 to 100 | 50 to 100 |  |  | 
9 | COCc1ccc(N(C)C)cc1N1C(=O)CS/C1=N\C(=O)Nc1ccc(-c2ncn(-c3ccc(S(=O)(=O)C(F)(F)F)cc3)n2)cc1F [Compound J671, (Z)-1-(3-(5-(Dimethylamino)-2-(methoxymethyl)phenyl)-4-oxothiazolidin-2-ylidene)-3-(2-fluoro-4-(1-(4-((trifluoromethyl)sulfonyl)phenyl)-1H-1,2,4-triazol-3-yl)phenyl)urea] | 50 to 100 | 50 to 100 |  |  | 
10 | Cc1ccc(COCC(F)(F)F)c(N2C(=O)CS/C2=N\C(=O)Nc2ccc(-c3ncn(-c4ccc(C(F)(F)C(F)(F)F)cc4)n3)cc2C)c1 [Compound J794, (Z)-1-(3-(5-Methyl-2-((2,2,2-trifluoroethoxy)methyl)phenyl)-4-oxothiazolidin-2-ylidene)-3-(2-methyl-4-(1-(4-(perfluoroethyl)phenyl)-1H-1,2,4-triazol-3-yl)phenyl)urea] |  |  |  |  | BAW rating (% control or mortality class) ([1]; Table ABC, species BAW, 128-well diet tray assay, second instar larvae): A (50-100); mortality at 50 µg/cm2 ([2]; Trichoplusia ni, Table ABC, species CL, 128-well diet tray assay, second instar larvae, read-out: CL rating (% control or mortality class)): 50 to 100%
11 | O=C(/N=C1\SCC(=O)N1c1ccccc1C(F)(F)F)Nc1ccc(-c2ncn(-c3ccc(OC(F)(F)F)cc3)n2)cc1 [Compound H10] |  |  | 50 to 100 | 50 to 100 | 
12 | Cc1ccc(COCC(Cl)(Cl)Cl)c(N2C(=O)CS/C2=N\C(=O)Nc2ccc(-c3ncn(-c4ccc(OC(F)(F)F)cc4)n3)cc2C)c1 [Compound J459] |  |  |  |  | BAW rating ([1]; Table ABC, species BAW): A (50-100); CL rating ([2]; Table ABC, species CL): A (50-100)
13 | COc1ccc(C(C)C)c(N2C(=O)CS/C2=N\C(=O)Nc2ccc(-c3ncn(-c4ccc(OC(F)(F)F)cc4)n3)cc2C)c1 [Compound J54, (Z)-1-(3-(2-Isopropyl-5-methoxyphenyl)-4-oxothiazolidin-2-ylidene)-3-(2-methyl-4-(1-(4-(trifluoromethoxy)phenyl)-1H-1,2,4-triazol-3-yl)phenyl)urea] |  |  | 50 to 100 | 50 to 100 | 
14 | COc1ccc(COCC(F)(F)F)c(N2C(=O)CS/C2=N\C(=O)Nc2ccc(-c3ncn(-c4ccc(C(F)(F)F)cc4)n3)cc2F)c1 [Compound J581] |  |  |  |  | BAW rating ([1]; Table ABC, species BAW): A (50-100); CL rating ([2]; Table ABC, species CL): A (50-100)
15 | CCCN(CCC)c1ccc(C(C)C)c(N2C(=O)CS/C2=N\C(=O)Nc2ccc(-c3ncn(-c4ccc(OC(F)(F)F)cc4)n3)cc2C)c1 [Compound J130, (Z)-1-(3-(5-(Dipropylamino)-2-isopropylphenyl)-4-oxothiazolidin-2-ylidene)-3-(2-methyl-4-(1-(4-(trifluoromethoxy)phenyl)-1H-1,2,4-triazol-3-yl)phenyl)urea] |  |  | 50 to 100 | 50 to 100 | 
16 | Cc1ccc(COCC(F)F)c(N2C(=O)CS/C2=N\C(=O)Nc2ccc(-c3noc(-c4ccc(OC(F)(F)F)cc4)n3)cc2F)c1 [Compound J771, (Z)-1-(3-(2-((2,2-Difluoroethoxy)methyl)-5-methylphenyl)-4-oxothiazolidin-2-ylidene)-3-(2-fluoro-4-(5-(4-(trifluoromethoxy)phenyl)-1,2,4-oxadiazol-3-yl)phenyl)urea] | 50 to 100 | 50 to 100 |  |  | 
17 | O=C(/N=C1\SCC(=O)N1c1ccc(Cl)cc1COCc1ccccc1)Nc1ccc(-c2ncn(-c3ccc(OC(F)(F)F)cc3)n2)cc1F [Compound J636, (Z)-1-(3-(2-((Benzyloxy)methyl)-4-chlorophenyl)-4-oxothiazolidin-2-ylidene)-3-(2-fluoro-4-(1-(4-(trifluoromethoxy)phenyl)-1H-1,2,4-triazol-3-yl)phenyl)urea] | 50 to 100 | 0 to 50 |  |  | 
18 | Cc1ccc(COCC(F)(F)F)c(N2C(=O)CS/C2=N\C(=O)Nc2ccc(-c3ncn(-c4ccc(S(F)(F)(F)(F)F)cc4)n3)cc2C(F)(F)F)c1 [Compound J626, (Z)-1-(3-(5-Methyl-2-((2,2,2-trifluoroethoxy)methyl)phenyl)-4-oxothiazolidin-2-ylidene)-3-(4-(1-(4-(pentafluoro-λ^6-sulfaneyl)phenyl)-1H-1,2,4-triazol-3-yl)-2-(trifluoromethyl)phenyl)urea] | 50 to 100 | 50 to 100 |  |  | 
19 | Cc1ccc(C(C)C)c(N2C(=O)CS/C2=N\C(=O)Nc2ccc(-c3ncn(-c4ccc(C(F)(F)F)cn4)n3)cc2C)c1 [Compound J284, (Z)-1-(3-(2-Isopropyl-5-methylphenyl)-4-oxothiazolidin-2-ylidene)-3-(2-methyl-4-(1-(5-(trifluoromethyl)pyridin-2-yl)-1H-1,2,4-triazol-3-yl)phenyl)urea] |  |  | 50 to 100 | 50 to 100 | 
20 | Cc1ccc(COCc2ccccc2F)c(N2C(=O)CS/C2=N\C(=O)Nc2ccc(-c3ncn(-c4ccc(OC(F)(F)F)cc4)n3)cc2F)c1 [Compound J635, (Z)-1-(2-Fluoro-4-(1-(4-(trifluoromethoxy)phenyl)-1H-1,2,4-triazol-3-yl)phenyl)-3-(3-(2-(((2-fluorobenzyl)oxy)methyl)-5-methylphenyl)-4-oxothiazolidin-2-ylidene)urea] | 50 to 100 | 50 to 100 |  |  | 
21 | Cc1ccc(OCCC(F)(F)F)c(N2C(=O)CS/C2=N\C(=O)Nc2ccc(-c3ncn(-c4ccc(S(F)(F)(F)(F)F)cc4)n3)cc2C(F)(F)F)c1 [Compound J629, (Z)-1-(3-(5-Methyl-2-(3,3,3-trifluoropropoxy)phenyl)-4-oxothiazolidin-2-ylidene)-3-(4-(1-(4-(pentafluoro-λ^6-sulfaneyl)phenyl)-1H-1,2,4-triazol-3-yl)-2-(trifluoromethyl)phenyl)urea] | 50 to 100 | 50 to 100 |  |  | 
22 | Cc1ccc(COCC(F)(F)Cl)c(N2C(=O)CS/C2=N\C(=O)Nc2ccc(-c3ncn(-c4ccc(OC(F)(F)F)cc4)n3)cc2C)c1 [Compound J436] |  |  |  |  | BAW rating ([1]; Table ABC, species BAW): A (50-100); CL rating ([2]; Table ABC, species CL): A (50-100)
23 | CCCc1ccc(C)cc1N1C(=O)CS/C1=N\C(=O)Nc1ccc(-c2cn(-c3ccc(S(F)(F)(F)(F)F)cc3)cn2)cc1F [Compound J590, (Z)-1-(2-Fluoro-4-(1-(4-(pentafluoro-λ^6-sulfaneyl)phenyl)-1H-imidazol-4-yl)phenyl)-3-(3-(5-methyl-2-propylphenyl)-4-oxothiazolidin-2-ylidene)urea] | 50 to 100 | 50 to 100 |  |  | 
